The text below walks through data of patent US7459478B2, “Substituted dihydropyrano indole-3,4-dione derivatives as inhibitors of plasminogen activator inhibitor-1 (PAI-1)” (Wyeth, priority 2002, dated 2008).

Molecules are shown by their SMILES. Read-outs that look alike come from different tables or passages of the source. Bounds are passed on as bounds.

Data set [1] addresses T1, recombinant human plasminogen activator inhibitor-1 (Homo sapiens, UniProt P05121).
T1 construct: purchased Molecular Innovations, Royal Oak, Mich
Put plainly: Primary screen for the PAI-1 inhibition (chromogenic residual tPA activity). In kind it is biochemical. The procedure:
Primary Screen for the PAI-1 Inhibition
Test compounds were dissolved in DMSO at a final concentration of 10 mM, then diluted 100× in physiologic buffer. The inhibitory assay was initiated by the addition of the test compound (1-100 μM final concentration, maximum DMSO concentration of 0.2%) in a pH 6.6 buffer containing 140 nM recombinant human plasminogen activator inhibitor-1 (Molecular Innovations, Royal Oak, Mich.). Following a 1 hour incubation at room temperature, 70 nM of recombinant human tissue plasminogen activator (tPA) was added, and the combination of the test compound, PAI-1 and tPA was incubated for an additional 30 minutes. Following the second incubation, Spectrozyme-tPA (American Diagnostica, Greenwich, Conn.), a chromogenic substrate for tPA, was added and absorbance read at 405 nm at 0 and 60 minutes. Relative PAI-1 inhibition was equal to the residual tPA activity in the presence of the test compound and PAI-1. Control treatments included the complete inhibition of tPA by PAI-1 at the molar ratio employed (2:1), and the absence of any effect of the test compound on tPA alone.

The target of a further data set is human PAI-1 (Homo sapiens, UniProt P05121). Put plainly: Assay for determining IC50 of inhibition of PAI-1 (tPA-coated plate, antibody detection of active PAI-1). Conditions: human PAI-1 50 ng/ml, pH 7.5, binding to tPA-coated plate. The protocol:
Assay for Determining IC50 of Inhibition of PAI-1
This assay is based upon the non-SDS dissociable interaction between tPA and active PAI-1. Assay plates were initially coated with human tPA (10 μg/ml). Test compounds were dissolved in DMSO at 10 mM, then diluted with physiologic buffer (pH 7.5) to a final concentration of 1-50 μM. Test compounds were incubated with human PAI-1 (50 ng/ml) for 15 minutes at room temperature. The tPA-coated plate was washed with a solution of 0.05% Tween 20 and 0.1% BSA, then the plate was blocked with a solution of 3% BSA. An aliquot of the test compound/PAI-1 solution was then added to the tPA-coated plate, incubated at room temperature for 1 hour, and washed. Active PAI-1 bound to the plate was assessed by adding an aliquot of a 1:1000 dilution of the 33B8 monoclonal antibody against human PAI-1, and incubating the plate at room temperature for 1 hour (Molecular Innovations, Royal Oak, Mich.). The plate was again washed, and a solution of goat anti-mouse IgG-alkaline phosphatase conjugate is added at a 1:50,000 dilution in goat serum. The plate was incubated 30 minutes at room temperature, washed, and a solution of alkaline phosphatase substrate is added. The plate was incubated 45 minutes at room temperature, and color development is determined at OD405 nm. The quantition of active PAI-1 bound to tPA at varying concentrations of the test compound was used to determine the IC50. Results were analyzed using a logarithmic best-fit equation. The assay sensitivity was 5 ng/ml of human PAI-1 as determined from a standard curve ranging from 0-100 ng/ml.

[2] abbreviates: 25 uM test compound, 140 nM PAI-1, 70 nM tPA, pH 6.6, read-out: % inhibition at 25 uM.
The mark [3] stands for this setting: pH 6.6, read-out: % inhibition at 25 uM.

Sequence of human PAI-1 (P05121 24-402): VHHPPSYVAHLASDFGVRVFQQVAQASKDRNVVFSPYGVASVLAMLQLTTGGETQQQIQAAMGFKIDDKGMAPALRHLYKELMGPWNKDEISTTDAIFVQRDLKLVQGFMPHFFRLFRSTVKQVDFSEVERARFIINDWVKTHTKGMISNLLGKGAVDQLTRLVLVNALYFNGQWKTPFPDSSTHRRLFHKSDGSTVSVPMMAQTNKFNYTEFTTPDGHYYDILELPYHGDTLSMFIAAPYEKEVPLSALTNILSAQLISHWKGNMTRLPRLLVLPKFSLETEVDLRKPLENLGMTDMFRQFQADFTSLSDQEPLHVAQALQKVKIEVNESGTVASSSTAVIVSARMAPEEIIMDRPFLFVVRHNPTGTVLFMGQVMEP
T1 sequence (P05121 24-402): as above

The term inhibition denotes how much of the control response was suppressed. By melting point is commonly meant the temperature of the solid-liquid transition. With `O=C1OCc2c(c3cc(-c4ccc(OC(F)(F)F)cc4)ccc3n2Cc2ccccc2)C1=O` [Example 2, 9-Benzyl-6-[4-(trifluoromethoxy)phenyl]-1,9-dihydropyrano[3,4-b]indole-3,4-dione], the melting point fell in the range of 239 to 240 °C. Further, the inhibition at 25 µM in data set [1] (setting [2]) was found to be 34%.

In the case of `O=C([O-])C(=O)c1c(CO)n(Cc2ccccc2)c2ccc(-c3ccc(Cl)cc3)cc12.[K+]` [Example 10, [1-Benzyl-5-(4-chlorophenyl)-2-(hydroxymethyl)-1H-indol-3-yl](oxo)acetic acid, potassium salt], the melting point was 225 to 226 °C. Also, the inhibition at 25 µM in data set [1] (setting [3]) turned out to be 59%.

A word on the IC50: it is the concentration at which inhibition is half-maximal. Read a high IC50 as weaker potency in that assay. `Cc1ccc(Cn2c3c(c4cc(OCc5ccccc5)ccc42)C(=O)C(=O)OC3)cc1` [Example 5, 6-(Benzyloxy)-9-(4-methylbenzyl)-1,9-dihydropyrano[3,4-b]indole-3,4-dione] returned a melting point of 206 to 207 °C. On human PAI-1, this compound registered an IC50 of 26.6 µM.

The compound `Cc1cccc(-c2ccc3c(c2)c2c(n3Cc3ccccc3)COC(=O)C2=O)c1` [Example 11, 9-Benzyl-6-(3-methylphenyl)-1,9-dihydropyrano[3,4-b]indole-3,4-dione] came in with a melting point of 225 to 226 °C. In data set [1] (setting [3]), the inhibition at 25 µM was determined as 30%.

Turning to `O=C1OCc2[nH]c3ccc(OCc4ccccc4)cc3c2C1=O` [Example 6, 6-(Benzyloxy)-1,9-dihydropyrano[3,4-b]indole-3,4-dione], the melting point is > 291 °C (dec.). At human PAI-1, this compound yielded a half-inhibitory concentration (IC50) of 34.8 µM.

For the compound `O=C1OCc2c(c3cc(-c4ccc(-c5ccccc5)cc4)ccc3n2Cc2ccccc2)C1=O` [Example 12, 9-Benzyl-6-(1,1′-biphenyl-4-yl)-1,9-dihydropyrano[3,4-b]indole-3,4-dione], the melting point fell in the range of 254 to 255 °C. Moreover, the inhibition at 25 µM in data set [1] (setting [2]) is 40%.

As to `CC(C)(C)c1ccc(Cn2c3c(c4cc(O)ccc42)C(=O)C(=O)OC3)cc1` [Example 8, 9-(4-tert-Butylbenzyl)-6-hydroxy-1,9-dihydropyrano[3,4-b]indole-3,4-dione], the melting point was > 105 °C (dec.). Further, the IC50 at human PAI-1 is 4.83 µM.

Consider `O=C([O-])C(=O)c1c(CO)n(Cc2ccccc2)c2ccc(-c3ccc(-c4ccccc4)cc3)cc12.[K+]` [Example 13, [1-Benzyl-5-(1,1′-biphenyl-4-yl)-2-(hydroxymethyl)-1H-indol-3-yl](oxo)acetic acid, potassium salt], for which the melting point is 266 to 268 °C. In data set [1] (setting [3]), the inhibition at 25 µM came out at 36%.

As for `Cc1ccc(Cn2c3c(c4cc(-c5cccc(C)c5)ccc42)C(=O)C(=O)OC3)cc1` [Example 3, 9-(4-Methylbenzyl)-6-(3-methylphenyl)-1,9-dihydropyrano[3,4-b]indole-3,4-dione], the melting point was in the range of 216 to 217 °C. Besides, the inhibition at 25 µM in data set [1] (setting [3]) was determined as 22%.

`CC(C)(C)c1ccc(Cn2c3c(c4cc(OCc5ccccc5)ccc42)C(=O)C(=O)OC3)cc1` [Example 7, 6-(Benzyloxy)-9-(4-tert-butylbenzyl)-1,9-dihydropyrano[3,4-b]indole-3,4-dione] had a melting point of 233 to 234 °C. Further, the inhibition at 25 µM in data set [1] (setting [2]) came out at 6%.

In the case of `O=C1OCc2c(c3cc(-c4ccc(Cl)cc4)ccc3n2Cc2ccccc2)C1=O` [Example 9, 9-Benzyl-6-(4-chlorophenyl)-1,9-dihydropyrano[3,4-b]indole-3,4-dione], the melting point lay in the range of 263 to 264 °C. In addition, the inhibition at 25 µM in data set [1] (setting [3]) was 40%.

The compound `Cc1cccc(-c2ccc3c(c2)c2c(n3Cc3ccc(C(C)(C)C)cc3)COC(=O)C2=O)c1` [Example 4, 9-(4-tert-butylbenzyl)-6-(3-methylphenyl)-1,9-dihydropyrano[3,4-b]indole-3,4-dione] came in with a melting point of 196 to 197 °C. For the same compound, the half-maximal inhibitory concentration (IC50) at human PAI-1 worked out at 29.5 µM.

The compound `Cc1ccc(Cn2c3c(c4cc(-c5ccc(OC(F)(F)F)cc5)ccc42)C(=O)C(=O)OC3)cc1` [Example 1, 9-(4-Methylbenzyl)-6-[4-(trifluoromethoxy)phenyl]-1,9-dihydropyrano[3,4-b]indole-3,4-dione] gave a melting point of 243 to 244 °C. In addition, the IC50 on human PAI-1 came out at 2.3 µM.
